Drawing on ChEMBL document CHEMBL6120977, “Structure-Affinity-Pharmacokinetics Relationships of Novel 18F-Labeled 1,4-Diazepane Derivatives for Orexin 1 Receptor Imaging” (J Med Chem, 2024), this text covers Ki and Ratio Ki for 9 molecules.

pKi: −log10 of the molar value.

Type in all cases: cell-based
Assay [1] concerns the target T1, Orexin/Hypocretin receptor type 1 (Homo sapiens, UniProt O43613).
T1 sequence (O43613 whole entry): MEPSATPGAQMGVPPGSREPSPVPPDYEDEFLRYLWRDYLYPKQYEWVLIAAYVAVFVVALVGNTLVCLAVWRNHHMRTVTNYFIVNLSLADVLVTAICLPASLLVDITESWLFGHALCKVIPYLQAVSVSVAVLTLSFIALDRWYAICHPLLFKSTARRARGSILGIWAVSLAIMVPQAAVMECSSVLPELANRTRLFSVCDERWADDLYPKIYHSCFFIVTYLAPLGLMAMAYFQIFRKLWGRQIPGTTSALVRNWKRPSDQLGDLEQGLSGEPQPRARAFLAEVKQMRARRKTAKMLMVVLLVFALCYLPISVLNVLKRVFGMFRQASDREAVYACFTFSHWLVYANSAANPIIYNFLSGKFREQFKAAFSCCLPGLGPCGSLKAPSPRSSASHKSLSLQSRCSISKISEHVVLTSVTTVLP
Put plainly: Displacement of […]5IBOM from OX1R (unknown origin) transfected in CHO cells assessed as inhibition constant incubated for 1.5 hrs by automated gamma-counter analysis. (In a radioligand displacement assay an active substance lowers the binding of a labelled ligand.)

For the next assay, the target named is T2, Orexin receptor type 2 (Homo sapiens, UniProt O43614).
T2 sequence (O43614 whole entry): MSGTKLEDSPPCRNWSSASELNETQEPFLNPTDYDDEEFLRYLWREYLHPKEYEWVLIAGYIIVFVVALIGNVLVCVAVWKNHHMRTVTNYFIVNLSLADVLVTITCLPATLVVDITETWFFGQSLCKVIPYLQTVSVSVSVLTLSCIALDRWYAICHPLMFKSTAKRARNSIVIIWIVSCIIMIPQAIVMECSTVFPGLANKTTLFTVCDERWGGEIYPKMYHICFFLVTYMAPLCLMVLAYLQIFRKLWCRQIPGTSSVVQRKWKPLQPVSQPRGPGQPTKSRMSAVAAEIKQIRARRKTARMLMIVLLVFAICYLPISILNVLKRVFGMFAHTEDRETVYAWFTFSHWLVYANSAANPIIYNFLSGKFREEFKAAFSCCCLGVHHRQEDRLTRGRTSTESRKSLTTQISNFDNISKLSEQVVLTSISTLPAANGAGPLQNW
In words: Displacement of […]5IBOM from OX2R (unknown origin) transfected in CHO cells assessed as inhibition constant incubated for 1.5 hrs by automated gamma-counter analysis.

The nature of assay [2]: Selectivity ratio of Ki for OX2R (unknown origin) transfected in CHO cells to Ki for OX1R (unknown origin) transfected in CHO cells.

In general, pKi refers to the negative decadic logarithm of the Ki, by convention in mol/L. `Cc1ccc2nc(N3CCCN(C(=O)c4cc(F)ccc4-n4nccn4)[C@@H](C)C3)sc2c1`: the figures for the pKi (in assay [1]; on Orexin receptor type 2) were 8.13 and 7.58, respectively. For the same molecule, the Ratio Ki in assay [2] worked out at 3.5.
Consider `C[C@H]1CN(c2nc3ccccc3s2)CCCN1C(=O)c1cc(F)ccc1-n1nccn1`, for which the pKi is 8.63 in assay [1] and 7.20 at Orexin receptor type 2. In assay [2], the Ratio Ki is 26.9.
On to `C[C@H]1CN(c2nc3ccc(F)cc3s2)CCCN1C(=O)c1ccccc1-n1nccn1`, for which the pKi in assay [1] is 9.19; on Orexin receptor type 2 it was 8.29. In addition, the Ratio Ki in assay [2] was 8.08.
In the case of `Cc1ccc(-n2nccn2)c(C(=O)N2CCCN(c3nc4cc(F)ccc4o3)C[C@@H]2C)c1`, the negative-log Ki (pKi) in assay [1] was 8.63; on Orexin receptor type 2, 8.06. In addition, in assay [2], the Ratio Ki stood at 3.68.
For the molecule `C[C@H]1CN(c2nc3ccc(F)cc3s2)CCCN1C(=O)c1cc(C(F)(F)F)ccc1-n1nccn1`, the pKi in assay [1] is 8.18; on Orexin receptor type 2, 7.72. The Ratio Ki in assay [2] turned out to be 2.85.
On to `Cc1ccc(-n2nccn2)c(C(=O)N2CCCN(c3nc4ccc(F)cc4o3)C[C@@H]2C)c1`, for which the pKi was 7.75 in assay [1] and 6.81 at Orexin receptor type 2. The Ratio Ki in assay [2] was 8.8.
Take `C[C@H]1CN(c2nc3ccc(F)cc3s2)CCCN1C(=O)c1cc(F)ccc1-n1nccn1`: the results for the pKi (in assay [1]; on Orexin receptor type 2) were 8.72 and 7.81, respectively. Further, the Ratio Ki in assay [2] amounted to 8.19.
As to `Cc1ccc(-n2nccn2)c(C(=O)N2CCCN(c3nc4cc(F)ccc4s3)C[C@@H]2C)c1`, the pKi in assay [1] was 8.94; on Orexin receptor type 2, 7.89. Also, the Ratio Ki in assay [2] was found to be 11.3.
The corresponding values for `Cc1ccc(-n2nccn2)c(C(=O)N2CCCN(c3nc4ccc(F)cc4s3)C[C@@H]2C)c1` are 8.67, 7.69 and 9.63.
